Experiments:
[1] = tested on: AMPKα1 wild-type (WT) and knockout (KO) mice; assay: Murine hemorrhagic shock model: mean arterial blood pressure and heart rate; format: in vivo
Source text: Murine model of hemorrhagic shock. The experiments conformed to the Guide for the Care and Use of Laboratory Animals published by the US National Institutes of Health (Eighth edition, 2011) and had the approval of the Institutional Animal Care and Use Committee. Homozygous AMPKα1 wild-type (WT) and AMPKα1 knockout (KO) mice were established on a C57/BL6 genetic background by the crossbreeding (>10 generations) of a breeding pair provided by Dr. Benoit Viollet of the University of Paris Descartes (Paris, France). For these experiments, female AMPKα1 WT and KO mice were generated by a breeding scheme utilizing heterozygous mutant mice. Female mice were used at random stages of the estrous cycle at the age of 3 to 5 months and assigned to the different experimental groups after routine genotyping by quantitative polymerase chain reaction. All mice were allowed free access to water and a maintenance diet in a 12-h light/dark cycle, with room temperature at 21±2° C. Mice were anesthetized with pentobarbital (80 mg/kg) intraperitoneally and prepared for hemorrhagic shock, as previously described. Briefly, either the left or right femoral artery was cannulated using PE-10 tubing, and connected to a blood pressure transducer (PowerLab, AD Instruments, Colorado Springs, CO) for measurement of mean arterial blood pressure (MABP) and heart rate (HR). Blood was removed from the femoral artery over a 10-minute period until MABP reached 30±5 mmHg. The mice were kept in this MABP range for 90 min by additional blood removal or small volume transfusion. At the end of the shock period, mice were resuscitated by infusing their shed blood and twice that amount in Lactated Ringer's solution over a 10-min period. AMPKα1 WT and KO mice were also randomly assigned to two treatment groups: a vehicle group (distilled water, 500 μL) and a humanin-G (100 μg/kg) group. Drug treatment was given intra-arterially as single bolus right before resuscitation, and at 1 and 2 hours thereafter. […] Mice were monitored for 3 hours after resuscitation for cardiovascular parameters. […]

[2] = tested on: AMPKα1 wild-type (WT) and knockout (KO) mice; assay: Plasma levels of humanin by competitive ELISA after hemorrhagic shock; format: in vivo; conditions: 100 μg/kg intra-arterially, 3 h after resuscitation
Source text: (§1) Murine model of hemorrhagic shock. The experiments conformed to the Guide for the Care and Use of Laboratory Animals published by the US National Institutes of Health (Eighth edition, 2011) and had the approval of the Institutional Animal Care and Use Committee. Homozygous AMPKα1 wild-type (WT) and AMPKα1 knockout (KO) mice were established on a C57/BL6 genetic background by the crossbreeding (>10 generations) of a breeding pair provided by Dr. Benoit Viollet of the University of Paris Descartes (Paris, France). For these experiments, female AMPKα1 WT and KO mice were generated by a breeding scheme utilizing heterozygous mutant mice. Female mice were used at random stages of the estrous cycle at the age of 3 to 5 months and assigned to the different experimental groups after routine genotyping by quantitative polymerase chain reaction. All mice were allowed free access to water and a maintenance diet in a 12-h light/dark cycle, with room temperature at 21±2° C. Mice were anesthetized with pentobarbital (80 mg/kg) intraperitoneally and prepared for hemorrhagic shock, as previously described. […] Mice were monitored for 3 hours after resuscitation for cardiovascular parameters. […]
Plasma levels of humanin. Endogenous plasma levels of humanin were measured by competitive ELISA ([…], MyBioSource, San Diego, CA) using the protocol recommended by the manufacturer.

[3] = tested on: AMPKα1 wild-type (WT) and knockout (KO) mice; assay: Lung histopathologic analysis after hemorrhagic shock; format: in vivo; conditions: 100 μg/kg intra-arterially, 3 h after resuscitation
Source text: as §1
Histopathologic analysis. […] Sections were stained with hematoxylin and eosin and evaluated by an independent observer blinded to the treatment groups. […]

[4] = tested on: AMPKα1 wild-type (WT) and knockout (KO) mice; assay: Lung myeloperoxidase assay (neutrophil infiltration) after hemorrhagic shock; format: in vivo; conditions: 100 μg/kg intra-arterially, 3 h after resuscitation
Source text: as §1, with “C.” for “C. Mice were anesthetized with pentobarbital (80 mg/kg) intraperitoneally and prepared for hemorrhagic shock, as previously described.”
Myeloperoxidase assay. Myeloperoxidase (MPO) activity was determined as an index of neutrophil accumulation. […] The rate of change in absorbance was measured by spectrophotometry at 650 nm. MPO activity was defined as the quantity of enzyme degrading […] of hydrogen peroxide/min at 37° C. and expressed in units per 100 mg weight of tissue.

[5] = tested on: AMPKα1 wild-type (WT) and knockout (KO) mice; assay: Plasma levels of cytokines (multiplex array) after hemorrhagic shock; format: in vivo; conditions: AMPKα1 WT or KO mice; 100 μg/kg intra-arterially; 3 h after resuscitation
Source text: as §1, with “C.” for “C. Mice were anesthetized with pentobarbital (80 mg/kg) intraperitoneally and prepared for hemorrhagic shock, as previously described.”
Plasma levels of cytokines. Plasma levels of interleukin (IL)-1β, IL-6, IL-10, IL-17, keratinocyte-derived chemokine (KC), and tumor necrosis factor-α (TNFα) were evaluated by a commercially available multiplex array system (Linco-Research, St. Charles, MO) using the protocol recommended by the manufacturer.

[6] = tested on: AMPKα1 wild-type (WT) and knockout (KO) mice; assay: Transmission electron microscopy of heart tissue mitochondria after hemorrhagic shock; format: in vivo; conditions: 100 μg/kg intra-arterially
Source text: as §1, with “C.” for “C. Mice were anesthetized with pentobarbital (80 mg/kg) intraperitoneally and prepared for hemorrhagic shock, as previously described.”
Transmission electron microscopy. […] The total number of mitochondria, and the presence of abnormal mitochondria with loose matrix, fragmented cristae and membranes were determined in four consecutive cells in four different sections for each animal by using NIH ImageJ analysis.

[7] = tested on: AMPKα1 wild-type (WT) and knockout (KO) mice; assay: ATP assay in heart tissue after hemorrhagic shock; format: in vivo; conditions: 100 μg/kg intra-arterially, 3 h after resuscitation
Source text: as §1
ATP assay. ATP levels were measured in heart tissue homogenates using a commercially available ATP assay kit (BioVision, Milpitas, CA) and following the protocol recommended by the manufacturer.

STAT3 = assay: Western blot of STAT3, pSTAT3(Ser727), pSTAT3(Tyr705) in cytosol and nuclear extracts of lung and heart; format: in vivo, mice
Source text: (§2) Murine model of hemorrhagic shock. The experiments conformed to the Guide for the Care and Use of Laboratory Animals published by the US National Institutes of Health (Eighth edition, 2011) and had the approval of the Institutional Animal Care and Use Committee. Homozygous AMPKα1 wild-type (WT) and AMPKα1 knockout (KO) mice were established on a C57/BL6 genetic background by the crossbreeding (>10 generations) of a breeding pair provided by Dr. Benoit Viollet of the University of Paris Descartes (Paris, France). For these experiments, female AMPKα1 WT and KO mice were generated by a breeding scheme utilizing heterozygous mutant mice. Female mice were used at random stages of the estrous cycle at the age of 3 to 5 months and assigned to the different experimental groups after routine genotyping by quantitative polymerase chain reaction. All mice were allowed free access to water and a maintenance diet in a 12-h light/dark cycle, with room temperature at 21±2° C. Mice were anesthetized with pentobarbital (80 mg/kg) intraperitoneally and prepared for hemorrhagic shock, as previously described. Briefly, either the left or right femoral artery was cannulated using PE-10 tubing, and connected to a blood pressure transducer (PowerLab, AD Instruments, Colorado Springs, CO) for measurement of mean arterial blood pressure (MABP) and heart rate (HR). Blood was removed from the femoral artery over a 10-minute period until MABP reached 30±5 mmHg. The mice were kept in this MABP range for 90 min by additional blood removal or small volume transfusion. At the end of the shock period, mice were resuscitated by infusing their shed blood and twice that amount in Lactated Ringer's solution over a 10-min period. AMPKα1 WT and KO mice were also randomly assigned to two treatment groups: a vehicle group (distilled water, 500 μL) and a humanin-G (100 μg/kg) group. Drug treatment was given intra-arterially as single bolus right before resuscitation, and at 1 and 2 hours thereafter. Dose of humanin was chosen according to reported pharmacokinetics and pharmacodynamics of the drug in the mice. Mice were monitored for 3 hours after resuscitation for cardiovascular parameters. […] Mice were sacrificed at 3 hours after resuscitation and blood, heart and lungs were collected for biochemical assays.
Cytosol and nuclear extracts. Heart and lung tissues were homogenized using a Polytron homogenizer (Brinkman Instruments, West Orange, NY) in a buffer containing 0.32 M sucrose, 10 mM TrisHCl (pH 7.4), 1 mM EGTA, 2 mM EDTA, 5 mM NaN3, 10 mM β-mercaptoethanol, […], 0.15 mM pepstatin A, 0.2 mM phenylmethanesulfonyl fluoride, 50 mM NaF, 1 mM sodium orthovanadate, and 0.4 nM microcystin. Samples were centrifuged at 1,000 g for 10 min at […] and the supernatants collected as cytosol extracts. The pellets were then solubilized in Triton buffer (1% Triton X-100, 250 mM NaCl, 50 mM Tris HCl at pH 7.5, 3 mM EGTA, 3 mM EDTA, 0.1 mM phenylmethanesulfonyl fluoride, 0. 1 mM sodium orthovanadate, 10% glycerol, 2 mM p-nitrophenyl phosphate, 0.5% NP-40, and […]). The lysates were centrifuged at 15,000 g for 30 min at […] and the supernatant collected as nuclear extracts. The Bradford protein assay was used for quantitative determination of total proteins.
Western blot analysis. Cytosol and nuclear content of STAT3 and its two phosphorylated active forms pSTAT3(Tyr705) and pSTAT3(Ser727), and mitochondrial content of pSTAT3(Ser727) and the Complex I subunit GRIM-19 (gene associated with retinoid-IFN-induced mortality) were determined by immunoblotting analyses. Extracts were heated at 70° C. in equal volumes of ×4 Protein Sample Loading Buffer. Twenty μg of protein were loaded per lane on a 10% Bis-Tris gel. Proteins were separated electrophoretically and transferred to nitrocellulose membranes. […]

[8] = tested on: STAT3 and Complex I subunit GRIM-19; assay: Western blot of pSTAT3(Ser727) and GRIM-19 in mitochondrial extracts of lung and heart; format: in vivo, mice
Source text: as §2
Mitochondrial extracts. Mitochondria were isolated from hearts and lungs using a commercially available mitochondria isolation kit (TermoFisher Scientific, Waltham, MA) and following the protocol recommended by the manufacturer. The Bradford protein assay was used for quantitative determination of total proteins.
Western blot analysis. Cytosol and nuclear content of STAT3 and its two phosphorylated active forms pSTAT3(Tyr705) and pSTAT3(Ser727), and mitochondrial content of pSTAT3(Ser727) and the Complex I subunit GRIM-19 (gene associated with retinoid-IFN-induced mortality) were determined by immunoblotting analyses. Extracts were heated at 70° C. in equal volumes of ×4 Protein Sample Loading Buffer. Twenty μg of protein were loaded per lane on a 10% Bis-Tris gel. Proteins were separated electrophoretically and transferred to nitrocellulose membranes. Immunoblotting was performed using the IBind Flex Western System (Thermo Fischer Scientific, Waltham, MA) that applies sequential lateral flow to perform blocking and antibody binding. […] For all immunoblotting, the Odyssey LI-COR scanner and software (LI-COR Biotechnology, Lincoln, NE) were used for detection and quantitative analysis.

mice with sepsis = conditions: cited from earlier work
[9] = tested on: AMPKα1 and AMPKα2 subunits; conditions: thoracic aortas; mice with sepsis; cited from earlier work
[10] = heart, WT mice, 100 μg/kg intra-arterially
[11] = lung, mice of both genotypes, 100 μg/kg intra-arterially
[12] = heart mitochondria, WT or KO mice, compared to vehicle-treated mice

In the case of “[Gly14]-Humanin (MAPRGFSCLLLLTGEIDLPVKRRA) [humanin-G, synthetic humanin analogue, serine at position 14 replaced by glycine]”, the “MABP recovery to baseline” value ([1]; AMPKα1 KO mice, 100 μg/kg intra-arterially at resuscitation, 1 h, 2 h) is reported as “did not completely recover to baseline”, the “mean arterial blood pressure (MABP)” value ([1]; AMPKα1 WT and KO female mice, 100 μg/kg intra-arterially at resuscitation and 1 h and 2 h thereafter, compared to vehicle-treated groups) is reported as “significantly ameliorated” and the “heart rate (HR)” value ([1]; AMPKα1 WT or KO mice, 100 μg/kg intra-arterially, compared to vehicle-treated groups) is reported as “did not affect”. For the same substance, the “plasma humanin levels compared to vehicle-treated groups” value ([2]; AMPKα1 WT and KO mice) was “not statistically different”, the “plasma levels of humanin compared to control mice” value ([2]; AMPKα1 WT mice, but not KO mice) was “comparable with levels of control mice” and the “lung architecture (histology)” value [3] was “significantly improved”. The “lung MPO activity” value [4] was “significantly reduced”, the “plasma levels of cytokines (IL-1β, IL-6, IL-10, IL-17, KC, TNFα)” value [5] was “did not affect” and the cardiac mitochondrial damage ([6]; AMPKα1 KO mice, 3 h after resuscitation) was “reduced”. For the same substance, the “cardiac mitochondrial structural changes” value ([6]; AMPKα1 WT mice after hemorrhagic shock) was “No abnormal structural changes”, the “cardiac ATP levels” value [7] was “increased” and the “cytosolic or nuclear expression of pSTAT3(Ser727) in heart” value (STAT3; [10]) was “did not affect”. For the same substance, the “cytosolic or nuclear expression of pSTAT3(Tyr705) in heart” value (STAT3; [10]) was “did not affect”, the “total levels of STAT3 in heart” value (STAT3; heart, across experimental groups, WT or KO mice) was “no difference” and the “total levels of STAT3 in lung” value (STAT3; lung, across experimental groups, WT or KO mice) was “no difference”. The “pSTAT3(Ser727) in lung cytosol and nucleus” value (STAT3; [11]) was “upregulated only in the nucleus”, the “pSTAT3(Tyr705) in lung cytosol and nucleus” value (STAT3; [11]) was “further upregulated” and the “mitochondrial expression of GRIM-19 in heart” value [8, 12] was “did not affect”. The “mitochondrial expression of pSTAT3(Ser727) in heart” value [8, 12] was “did not affect”, the “mitochondrial expression of pSTAT3(Ser727) in lung” value ([8]; isolated lung mitochondria, WT and KO mice, 100 μg/kg intra-arterially) was “slightly, but not significantly, increased” and the “GRIM-19 expression in lung mitochondria” value ([8]; KO mice, 100 μg/kg intra-arterially) was “did not affect”. For the same substance, the “GRIM-19 expression in lung mitochondria” value ([8]; WT mice, 100 μg/kg intra-arterially) was “restored levels of GRIM-19 similarly to basal levels”.
For “colivelin: synthetic analogue of humanin; SALLRSIPAPAGASRLLLLTGEIDLP (SEQ ID NO: 8)”, the “organ injury in experimental septic shock” value (mice with sepsis; mice, Urban C, et al. 2022) is given as “protective effects”, the “endothelial damage in mice with sepsis” value (mice with sepsis; thoracic aortas) is given as “ameliorating” and the “activation of AMPKα1 and AMPKα2 subunits” value [9] is given as “activates”.
